Test [1] deals with 3',5'-cyclic-AMP phosphodiesterase 4B (Homo sapiens) (UniProt Q07343). Briefly: Inhibition of PDE4B at 30 uM by luciferase reporter gene assay. On the technique in general: In a reporter assay the amount or activity of a reporter protein is the signal.
Test [2] concerns Lampyridae. Briefly: inhibition of firefly luciferase at 30 uM after 15 mins by luminescence assay.

Usually inhibition stands for how much of the control response was suppressed.

Sequence of 3',5'-cyclic-AMP phosphodiesterase 4B (Homo sapiens) (Q07343 whole entry): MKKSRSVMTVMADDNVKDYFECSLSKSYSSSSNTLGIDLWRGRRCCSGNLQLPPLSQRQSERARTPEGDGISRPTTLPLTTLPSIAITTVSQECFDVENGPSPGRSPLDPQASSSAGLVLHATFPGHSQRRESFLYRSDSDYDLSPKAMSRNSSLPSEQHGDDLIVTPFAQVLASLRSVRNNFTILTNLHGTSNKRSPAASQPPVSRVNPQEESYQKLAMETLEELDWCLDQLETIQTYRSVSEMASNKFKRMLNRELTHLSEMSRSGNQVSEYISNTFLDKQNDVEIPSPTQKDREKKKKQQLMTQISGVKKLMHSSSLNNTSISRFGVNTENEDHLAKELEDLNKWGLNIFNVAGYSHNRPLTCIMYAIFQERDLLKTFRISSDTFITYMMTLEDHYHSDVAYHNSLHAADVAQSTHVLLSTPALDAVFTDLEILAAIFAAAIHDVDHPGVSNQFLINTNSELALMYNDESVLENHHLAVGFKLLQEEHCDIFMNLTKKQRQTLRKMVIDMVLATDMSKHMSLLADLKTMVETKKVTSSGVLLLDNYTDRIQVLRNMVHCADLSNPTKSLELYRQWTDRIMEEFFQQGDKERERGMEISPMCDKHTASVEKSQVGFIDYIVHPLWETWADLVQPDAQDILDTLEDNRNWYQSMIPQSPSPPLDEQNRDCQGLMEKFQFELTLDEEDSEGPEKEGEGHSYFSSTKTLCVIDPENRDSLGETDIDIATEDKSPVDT

In the case of `CC(C)(C)c1cc2nc3ccccc3nc2[nH]1`, the figures for the inhibition in test [1] and in test [2] were 100% and 99.2%, respectively.

`c1ccc(-c2cc3[nH]c4ccccc4nc-3n2)cc1`: the values for the inhibition in test [1] and in test [2] were 98.3% and 98.4%, respectively.

For `CS(=O)(=O)n1c(-c2ccccc2)cc2nc3ccccc3nc21`, the results for the inhibition in test [1] and in test [2] were 94.7% and 92.4%, respectively.

Values taken from ChEMBL document CHEMBL2150938, “Pyrrolo[2,3-b]quinoxalines as inhibitors of firefly luciferase: their Cu-mediated synthesis and evaluation as false positives in a reporter gene assay” (Bioorg Med Chem Lett, 2012).
